Measured values published in patent publication US20240197695A1, “COMPOUND FOR PREVENTION OR TREATMENT OF KIDNEY DISEASE” (ONCOCROSS CO.,LTD, priority 2021, published 2024).
Marks after values point to notes of the source that are not given here.

Columns and labels:
Assay type in all cases: in vivo, mice (C57BL/6)
[1] = Drinking water intake of mice in diabetic nephrosis model; design: unit not given here
Procedure: (§1) STZ (Sigma-aldrich, S0130, 40 mg/kg b.w., in 0.1 M citrate buffer pH 4.5) was intraperitoneally administered to 9-week-old male mice (C57BL/6) once/1 day for 5 days to perform a first disease induction. After 7 weeks of the first induction, a second induction was performed using the same method as the first induction. For 5 days of an STZ administration period for the first induction, 10% sucrose was administered as drinking water. In addition, after 14 days of the second administration, blood glucose levels were confirmed to confirm the induction rate, and the induced animals were separated into groups. Experimental substances (R)-4-{(R)-1-[7-(3,4,5-trimethoxy-phenyl)-[1,6] naphthyridin-5-yloxy]-ethyl}pyrrolidin-2-one (BI-1002494) and cromolyn (OC-101) were administered orally into the stomach at 10 mL/kg using an administration syringe (sonde) before 16:00 daily for 12 weeks at a frequency of 7 days/week at doses shown in Table 1 below, and dexamethasone was orally administered as a positive control substance.

[2] = test system: diabetic nephrosis animal models; assay: Changes in blood glucose levels (tail vein, blood glucose level meter)
Procedure: as §1
Before disease induction, excluding week 9 of administration of experimental substances to mice in each group of Example 1 above, after 2 weeks after the first induction (based on a first administration date), and after 6 weeks and 2 weeks of the second induction (based on the first administration date), blood was collected from the tail vein and blood glucose levels were measured using a blood glucose level meter (Accu-Check, Roche), and fasting was performed for 4 hours from 9:30 a.m. to 1:30.

[3] = test system: diabetic nephrosis animal models; assay: Blood indoxyl sulfate by LC MS/MS; settings: after observation period, fasted
Procedure: as §1
(§2) After the observation period for mice of each group in Example 1 was terminated, all surviving animals were fasted in the same manner as when measuring blood glucose levels, and then anesthetized by inhaling isoflurane, and blood was collected from the abdominal vena cava through laparotomy. After the blood collection was completed, the veins and arteries were cut under anesthesia and exsanguinated. The collected blood was left at room temperature for 30 minutes or more and then centrifuged at 3,000 rpm for 20 minutes. Thereafter, glucose, Blood urea nitrogen (BUN), and creatinine were analyzed using an automated blood biochemistry analyzer (Hitachi 3100, Hitachi Co. Ltd., Japan). Indoxyl sulfate (a substance that was mainly produced in the intestines to cause renal injury, and a substance that caused end-stage renal failure by advancing renal function damage in patients with renal failure during hemodialysis) was analyzed using LC MS/MS. In addition, blood insulin was analyzed according to a method represented by a commercial Mouse Insulin ELISA KIT (#AKRIN-011T, Sibayagi Co. Ltd., Japan).

[4] = test system: diabetic nephrosis animal models; assay: Blood insulin (Mouse Insulin ELISA KIT) and HOMA-IR; settings: for HOMA-IR, Mean / Insulin, Mean: after observation period, fasted
Procedure: as §1, §2

[5] = Feed intake of mice in diabetic nephrosis model; design: Feed intake, Mean: unit not given here
Procedure: as §1

[6] = after induction of diabetic renal diseases

COc1cc(-c2cc3ncccc3c(O[C@H](C)[C@H]3CNC(=O)C3)n2)cc(OC)c1OC [BI-1002494, (R)-4-{(R)-1-[7-(3,4,5-trimethoxy-phenyl)-[1,6]naphthyridin-5-yloxy]-ethyl}pyrrolidin-2-one]
Drinking water intake, Mean ([1]; 12.5 mg/kg/day oral, week 0): 7.80
Drinking water intake, Mean ([1]; 12.5 mg/kg/day oral, week 1): 7.91
Drinking water intake, Mean ([1]; 12.5 mg/kg/day oral, week 2): 7.41
Drinking water intake, Mean ([1]; 12.5 mg/kg/day oral, week 3): 7.39
Drinking water intake, Mean ([1]; 12.5 mg/kg/day oral, week 4): 7.38
Drinking water intake, Mean ([1]; 12.5 mg/kg/day oral, week 5): 7.16
Drinking water intake, Mean ([1]; 12.5 mg/kg/day oral, week 6): 7.34
Drinking water intake, Mean ([1]; 12.5 mg/kg/day oral, week 7): 7.24
Drinking water intake, Mean ([1]; 12.5 mg/kg/day oral, week 8): 6.99
Drinking water intake, Mean ([1]; 12.5 mg/kg/day oral, week 9): 7.40
Drinking water intake, Mean ([1]; 12.5 mg/kg/day oral, week 10): 7.46
Drinking water intake, Mean ([1]; 25 mg/kg/day oral, week 0): 7.07
Drinking water intake, Mean ([1]; 25 mg/kg/day oral, week 1): 7.62
Drinking water intake, Mean ([1]; 25 mg/kg/day oral, week 2): 7.86
Drinking water intake, Mean ([1]; 25 mg/kg/day oral, week 3): 7.38
Drinking water intake, Mean ([1]; 25 mg/kg/day oral, week 4): 6.73
Drinking water intake, Mean ([1]; 25 mg/kg/day oral, week 5): 7.19
Drinking water intake, Mean ([1]; 25 mg/kg/day oral, week 6): 7.34
Drinking water intake, Mean ([1]; 25 mg/kg/day oral, week 7): 7.69
Drinking water intake, Mean ([1]; 25 mg/kg/day oral, week 8): 7.43
Drinking water intake, Mean ([1]; 25 mg/kg/day oral, week 9): 7.54
Drinking water intake, Mean ([1]; 25 mg/kg/day oral, week 10): 7.15
Drinking water intake, Mean ([1]; 50 mg/kg/day oral, week 0): 7.27
Drinking water intake, Mean ([1]; 50 mg/kg/day oral, week 1): 7.04
Drinking water intake, Mean ([1]; 50 mg/kg/day oral, week 2): 6.07
Drinking water intake, Mean ([1]; 50 mg/kg/day oral, week 3): 6.96
Drinking water intake, Mean ([1]; 50 mg/kg/day oral, week 4): 7.13
Drinking water intake, Mean ([1]; 50 mg/kg/day oral, week 5): 6.48
Drinking water intake, Mean ([1]; 50 mg/kg/day oral, week 6): 6.93
Drinking water intake, Mean ([1]; 50 mg/kg/day oral, week 7): 6.39
Drinking water intake, Mean ([1]; 50 mg/kg/day oral, week 8): 6.91
Drinking water intake, Mean ([1]; 50 mg/kg/day oral, week 9): 6.61
Drinking water intake, Mean ([1]; 50 mg/kg/day oral, week 10): 6.22
Blood glucose level, Mean ([2]; 12.5 mg/kg/day oral, week 0, 4 h fasting, in mg/dL (unit assumed)): 291.1
Blood glucose level, Mean ([2]; 12.5 mg/kg/day oral, week 2, 4 h fasting, in mg/dL (unit assumed)): 319.5
Blood glucose level, Mean ([2]; 12.5 mg/kg/day oral, week 4, 4 h fasting): 225.1^#
Blood glucose level, Mean ([2]; 12.5 mg/kg/day oral, week 6, 4 h fasting): 261.8^#
Blood glucose level, Mean ([2]; 12.5 mg/kg/day oral, week 8, 4 h fasting): 270.4^#
Blood glucose level, Mean ([2]; 12.5 mg/kg/day oral, week 10, 4 h fasting): 280.8^#
Blood glucose level, Mean ([2]; 25 mg/kg/day oral, week 0, 4 h fasting, in mg/dL (unit assumed)): 301.2
Blood glucose level, Mean ([2]; 25 mg/kg/day oral, week 2, 4 h fasting, in mg/dL (unit assumed)): 310.1
Blood glucose level, Mean ([2]; 25 mg/kg/day oral, week 4, 4 h fasting): 218.6^#
Blood glucose level, Mean ([2]; 25 mg/kg/day oral, week 6, 4 h fasting): 257.8^#
Blood glucose level, Mean ([2]; 25 mg/kg/day oral, week 8, 4 h fasting): 279.1^#
Blood glucose level, Mean ([2]; 25 mg/kg/day oral, week 10, 4 h fasting): 255.9^#
Blood glucose level, Mean ([2]; 50 mg/kg/day oral, week 0, 4 h fasting, in mg/dL (unit assumed)): 303.7
Blood glucose level, Mean ([2]; 50 mg/kg/day oral, week 2, 4 h fasting, in mg/dL (unit assumed)): 264.5
Blood glucose level, Mean ([2]; 50 mg/kg/day oral, week 4, 4 h fasting): 201.0^#
Blood glucose level, Mean ([2]; 50 mg/kg/day oral, week 6, 4 h fasting): 199.6^#
Blood glucose level, Mean ([2]; 50 mg/kg/day oral, week 8, 4 h fasting): 200.9^#
Blood glucose level, Mean ([2]; 50 mg/kg/day oral, week 10, 4 h fasting): 187.3^#
Blood glucose levels compared to those of the positive control group ([2]; administered group (12.5, 25, 50 mg/kg)): decreased significantly
Blood glucose levels, summary [2, 6]: decreased in a dose-dependent manner
Indoxyl sulfate, Mean ([3]; 12.5 mg/kg/day oral): 2.2 µg/mL
Indoxyl sulfate, Mean ([3]; 25 mg/kg/day oral): 2.2 µg/mL
Indoxyl sulfate, Mean ([3]; 50 mg/kg/day oral): 1.9 µg/mL
HOMA-IR, Mean ([4]; 12.5 mg/kg/day oral): 12.4
Insulin, Mean ([4]; 12.5 mg/kg/day oral): 0.7 ng/mL
HOMA-IR, Mean ([4]; 25 mg/kg/day oral): 8.7^#
Insulin, Mean ([4]; 25 mg/kg/day oral): 0.5^# ng/ml
HOMA-IR, Mean ([4]; 50 mg/kg/day oral): 6.9^#
Insulin, Mean ([4]; 50 mg/kg/day oral): 0.5 ng/mL
HOMA-IR compared with that of the disease control group ([4]; 25 and 50 mg/kg administered groups): statistically significantly reduced
Insulin resistance (HOMA-IR), summary [4, 6]: decreased in a dose-dependent manner
Feed intake compared to the disease control group ([5]; 12.5 mg/kg administered group, after week 4 of administration): statistically significantly decreased
Feed intake, Mean ([5]; 12.5 mg/kg/day oral, week 0): 6.97
Feed intake, Mean ([5]; 12.5 mg/kg/day oral, week 1): 5.61
Feed intake, Mean ([5]; 12.5 mg/kg/day oral, week 2): 6.23
Feed intake, Mean ([5]; 12.5 mg/kg/day oral, week 3): 4.58
Feed intake, Mean ([5]; 12.5 mg/kg/day oral, week 4): 5.14^#
Feed intake, Mean ([5]; 12.5 mg/kg/day oral, week 5): 4.98
Feed intake, Mean ([5]; 12.5 mg/kg/day oral, week 6): 5.31
Feed intake, Mean ([5]; 12.5 mg/kg/day oral, week 7): 5.21
Feed intake, Mean ([5]; 12.5 mg/kg/day oral, week 8): 4.26
Feed intake, Mean ([5]; 12.5 mg/kg/day oral, week 9): 4.39
Feed intake, Mean ([5]; 12.5 mg/kg/day oral, week 10): 4.64
Feed intake compared to the disease control group ([5]; 25 mg/kg administered group, after week 6 of administration): statistically significantly decreased
Feed intake, Mean ([5]; 25 mg/kg/day oral, week 0): 6.73
Feed intake, Mean ([5]; 25 mg/kg/day oral, week 1): 5.63
Feed intake, Mean ([5]; 25 mg/kg/day oral, week 2): 5.59
Feed intake, Mean ([5]; 25 mg/kg/day oral, week 3): 5.26
Feed intake, Mean ([5]; 25 mg/kg/day oral, week 4): 4.99
Feed intake, Mean ([5]; 25 mg/kg/day oral, week 5): 5.15
Feed intake, Mean ([5]; 25 mg/kg/day oral, week 6): 5.51^#
Feed intake, Mean ([5]; 25 mg/kg/day oral, week 7): 5.04
Feed intake, Mean ([5]; 25 mg/kg/day oral, week 8): 4.95
Feed intake, Mean ([5]; 25 mg/kg/day oral, week 9): 4.62
Feed intake, Mean ([5]; 25 mg/kg/day oral, week 10): 4.63
Feed intake compared to the disease control group ([5]; 50 mg/kg administered group, after week 8 of administration): statistically significantly decreased
Feed intake, Mean ([5]; 50 mg/kg/day oral, week 0): 5.98
Feed intake, Mean ([5]; 50 mg/kg/day oral, week 1): 5.74
Feed intake, Mean ([5]; 50 mg/kg/day oral, week 2): 4.98
Feed intake, Mean ([5]; 50 mg/kg/day oral, week 3): 5.36
Feed intake, Mean ([5]; 50 mg/kg/day oral, week 4): 5.14
Feed intake, Mean ([5]; 50 mg/kg/day oral, week 5): 4.89
Feed intake, Mean ([5]; 50 mg/kg/day oral, week 6): 5.64
Feed intake, Mean ([5]; 50 mg/kg/day oral, week 7): 5.11
Feed intake, Mean ([5]; 50 mg/kg/day oral, week 8): 4.86^#
Feed intake, Mean ([5]; 50 mg/kg/day oral, week 9): 4.30
Feed intake, Mean ([5]; 50 mg/kg/day oral, week 10): 4.14
